Results published in PubChem BioAssay (NCI).
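All cell lines were grown in 96-well plates and treated with compound for 48 hours. At the GI50, growth is halved. TGI marks complete inhibition of growth.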

Legend:
Test in all cases: inhibition of tumour cell growth, NCI panel, 48 h
SR leukemia = test system: SR leukemia
HOP-62 NSCLC = test system: HOP-62 NSCLC
KM12 colon = test system: KM12 colon
NCI-H23 lung = test system: NCI-H23 lung
IGROV1 ovarian = test system: IGROV1 ovarian
EKVX NSCLC = test system: EKVX NSCLC
TK-10 renal = test system: TK-10 renal
SF-539 CNS = test system: SF-539 CNS
HCT-15 colon = test system: HCT-15 colon
MOLT-4 leukemia = test system: MOLT-4 leukemia
U251 CNS = test system: U251 CNS
DU-145 prostate = test system: DU-145 prostate
HL-60(TB) leukemia = test system: HL-60(TB) leukemia
NCI-H522 lung = test system: NCI-H522 lung
HT29 colon = test system: HT29 colon
HCT-116 colon = test system: HCT-116 colon
COLO 205 colon = test system: COLO 205 colon
HS 578T breast = test system: HS 578T breast
MDA-MB-435 = test system: MDA-MB-435
CCRF-CEM leukemia = test system: CCRF-CEM leukemia
UACC-62 melanoma = test system: UACC-62 melanoma
SF-268 CNS = test system: SF-268 CNS
A498 renal = test system: A498 renal
PC-3 prostate = test system: PC-3 prostate
NCI/ADR-RES ovarian = test system: NCI/ADR-RES ovarian
HCC-2998 colon = test system: HCC-2998 colon
OVCAR-4 ovarian = test system: OVCAR-4 ovarian
A549 NSCLC = test system: A549 NSCLC
M14 melanoma = test system: M14 melanoma
LOX IMVI melanoma = test system: LOX IMVI melanoma
MCF7 breast = test system: MCF7 breast
BT-549 breast = test system: BT-549 breast
SK-MEL-28 melanoma = test system: SK-MEL-28 melanoma
786-0 renal = test system: 786-0 renal
UO-31 renal = test system: UO-31 renal
SK-OV-3 ovarian = test system: SK-OV-3 ovarian
RXF 393 renal = test system: RXF 393 renal
HOP-92 NSCLC = test system: HOP-92 NSCLC
RPMI-8226 leukemia = test system: RPMI-8226 leukemia
SNB-75 CNS = test system: SNB-75 CNS
SK-MEL-2 melanoma = test system: SK-MEL-2 melanoma
CAKI-1 renal = test system: CAKI-1 renal
ACHN renal = test system: ACHN renal
MDA-MB-468 breast = test system: MDA-MB-468 breast
NCI-H226 lung = test system: NCI-H226 lung
SF-295 CNS = test system: SF-295 CNS
SW-620 colon = test system: SW-620 colon
SN12C renal = test system: SN12C renal
UACC-257 melanoma = test system: UACC-257 melanoma
MDA-MB-231 breast = test system: MDA-MB-231 breast
SNB-19 CNS = test system: SNB-19 CNS
MALME-3M melanoma = test system: MALME-3M melanoma
K-562 leukemia = test system: K-562 leukemia
OVCAR-3 ovarian = test system: OVCAR-3 ovarian
T-47D breast = test system: T-47D breast
OVCAR-8 ovarian = test system: OVCAR-8 ovarian
NCI-H460 lung = test system: NCI-H460 lung
OVCAR-5 ovarian = test system: OVCAR-5 ovarian
SK-MEL-5 melanoma = test system: SK-MEL-5 melanoma

## Cc1cc2nc3c4ccccc4n(CCNCCN(C)C)c3nc2cc1C
SR leukemia
  GI50: 2.01 µM
  TGI: 5.92 µM
HOP-62 NSCLC
  GI50: 4.98 µM
  TGI: 19.8 µM
KM12 colon
  GI50: 13.2 µM
  TGI: 26.9 µM
NCI-H23 lung
  GI50: 11.5 µM
  TGI: 26.6 µM
IGROV1 ovarian
  GI50: 4.81 µM
  TGI: 18.5 µM
EKVX NSCLC
  GI50: 11.1 µM
  TGI: 24.2 µM
TK-10 renal
  GI50: 8.06 µM
  TGI: 20.8 µM
SF-539 CNS
  GI50: 4.96 µM
  TGI: 17.4 µM
HCT-15 colon
  GI50: 5.23 µM
  TGI: 18.3 µM
MOLT-4 leukemia
  GI50: 4.09 µM
  TGI: 15.6 µM
U251 CNS
  GI50: 6.09 µM
  TGI: 19.7 µM
DU-145 prostate
  GI50: 5.69 µM
  TGI: 18.1 µM
HL-60(TB) leukemia
  GI50: 5.51 µM
  TGI: 20.3 µM
NCI-H522 lung
  GI50: 8.38 µM
  TGI: 23.5 µM
HT29 colon
  GI50: 3.84 µM
  TGI: 15.5 µM
HCT-116 colon
  GI50: 5.35 µM
  TGI: 18.8 µM
COLO 205 colon
  GI50: 3.98 µM
  TGI: 17.3 µM
HS 578T breast
  GI50: 9.6 µM
  TGI: 30.7 µM
MDA-MB-435
  GI50: 5.23 µM
  TGI: 17.8 µM
CCRF-CEM leukemia
  GI50: 11.5 µM
  TGI: 31.7 µM
UACC-62 melanoma
  GI50: 6.63 µM
  TGI: 19.8 µM
SF-268 CNS
  GI50: 9.33 µM
  TGI: 23.9 µM
A498 renal
  GI50: 14.5 µM
  TGI: 29.2 µM
PC-3 prostate
  GI50: 5.23 µM
  TGI: 23.2 µM
NCI/ADR-RES ovarian
  GI50: 8.46 µM
  TGI: 29 µM
HCC-2998 colon
  GI50: 5.47 µM
  TGI: 19.5 µM
OVCAR-4 ovarian
  GI50: 4.89 µM
  TGI: 19.1 µM
A549 NSCLC
  GI50: 4.67 µM
  TGI: 19.5 µM
M14 melanoma
  GI50: 7.43 µM
  TGI: 23.3 µM
LOX IMVI melanoma
  GI50: 3.07 µM
  TGI: 15.3 µM
MCF7 breast
  GI50: 3.27 µM
  TGI: 14.6 µM
BT-549 breast
  GI50: 14.1 µM
  TGI: 28 µM
SK-MEL-28 melanoma
  GI50: 7.61 µM
  TGI: 20.1 µM
786-0 renal
  GI50: 8.4 µM
  TGI: 22.2 µM
UO-31 renal
  GI50: 1.49 µM
  TGI: 14.6 µM
SK-OV-3 ovarian
  GI50: 11.7 µM
  TGI: 29.4 µM
RXF 393 renal
  GI50: 5.17 µM
  TGI: 18.2 µM
HOP-92 NSCLC
  GI50: 3.45 µM
  TGI: 22.5 µM
RPMI-8226 leukemia
  GI50: 3.36 µM
  TGI: 18.3 µM
SNB-75 CNS
  GI50: 3.33 µM
  TGI: 20.3 µM
SK-MEL-2 melanoma
  GI50: 12.6 µM
  TGI: 27.6 µM
CAKI-1 renal
  GI50: 10.8 µM
  TGI: 22.7 µM
ACHN renal
  GI50: 4.31 µM
  TGI: 17 µM
MDA-MB-468 breast
  GI50: 7.78 µM
  TGI: 21.3 µM
NCI-H226 lung
  GI50: 6.13 µM
  TGI: 26.5 µM
SF-295 CNS
  GI50: 6.48 µM
  TGI: 19.6 µM
SW-620 colon
  GI50: 3.87 µM
  TGI: 16.2 µM
SN12C renal
  GI50: 4.63 µM
  TGI: 18.5 µM
UACC-257 melanoma
  GI50: 1.98 µM
  TGI: 5.35 µM
MDA-MB-231 breast
  GI50: 6.88 µM
  TGI: 21.1 µM
SNB-19 CNS
  GI50: 7.26 µM
  TGI: 20 µM
MALME-3M melanoma
  GI50: 9.35 µM
  TGI: 23.2 µM
K-562 leukemia
  GI50: 3.35 µM
  TGI: 13.7 µM
OVCAR-3 ovarian
  GI50: 7.35 µM
  TGI: 20.5 µM
T-47D breast
  GI50: 12.2 µM
  TGI: 31.2 µM
OVCAR-8 ovarian
  GI50: 4.66 µM
  TGI: 20.3 µM
NCI-H460 lung
  GI50: 3.61 µM
  TGI: 13.6 µM
OVCAR-5 ovarian
  GI50: 6.68 µM
  TGI: 19.5 µM
SK-MEL-5 melanoma
  GI50: 12.6 µM
  TGI: 25.6 µM
